Source: a melting point compilation (Tetko et al.; mined from patent text by program, amines drawn as free bases though some values may be those of a salt)

Work on O=S1(=O)N=CN(C2CC2)c2cc(Br)c(C(F)(F)F)cc21 yielded a melting point of 204 to 206 °C.
Compound CN1CC[C@@H](c2c(O)cc(O)c3c(=O)cc(-c4cccnc4Cl)oc23)[C@@H]1CO has a melting point of 125 to 127 °C.
CCOC(=O)c1cc(=O)c2ccc(C)cc2o1 gave a melting point of 62 to 64 °C.
For Cc1c(O)cc(O)c(C)c1C(=O)OCc1ccc([N+](=O)[O-])cc1, the melting point was 164 to 166 °C.
With COc1cccc(CNC(=O)c2cc3c(s2)N(C)CNC3)c1 the melting point was 279 to 281 °C.
In the case of CC(C)Nc1cccnc1N1CCN(C(=O)c2ccc(C(=O)N(CCO)CCO)cc2)CC1, the melting point is reported as 161 to 162 °C.
In the case of CN1C2=C(CSC2)C(=O)Nc2ccccc21, the melting point is reported as 196 to 198 °C.
Compound CCCCOc1c(C(=O)O)n(CC2CC2)c(=O)c2ccc(Br)cc12 has a melting point of 166 to 167 °C.
With CC(=O)Oc1ccc(-c2c(CBr)c3ccc(OC(C)=O)cc3oc2=O)c(OC(C)=O)c1 the melting point was 171 to 172 °C.
Nc1ncc(S(=O)c2ccc(F)cc2F)s1 (stereo not drawn) showed a melting point of 171 to 172 °C.
Compound Cc1cccc(C)c1CNc1cc(Br)cc2c1nc(C)n2O has a melting point of 277 °C.
ON=Cc1c[nH]cc1-c1cccc(Cl)c1Cl gave a melting point of 158 to 160 °C.
Compound c1ccc(CN2CCCC3(CC2)CC(c2ccccc2)=NO3)cc1 (stereo not drawn) has a melting point of 42 to 57 °C.
For COc1ccc(COc2cccnc2NC(=S)Nc2ccc(Cl)cc2)c(F)c1, the melting point was 138 to 140 °C.
CC(=O)Nc1onc(-c2ccccc2)c1Cl gave a melting point of 141 to 142 °C.
Compound O=S(=O)(Nc1ncnc(Cl)c1Cc1cccc2ccccc12)c1ccc(Cl)cc1 has a melting point of 202 to 203 °C.
Compound CC(O)=C1SC(=S)N(c2ccc(Cl)cc2)C1=O has a melting point of 200 to 205 °C.
Compound Nc1c([N+](=O)[O-])cnc2sccc12 has a melting point of 227 to 228 °C.
COC(=O)c1ccc(C#Cc2ccc(O)c(C34CC5CC(CC(C5)C3)C4)c2)s1 showed a melting point of 207 to 208 °C.
With CCOC(=O)C(=O)Cc1ccnc2c1C(=O)c1ccccc1-2 the melting point was 196 to 197 °C.
Compound O=C(Nc1nc2ccccc2s1)c1ccccc1C(c1ccc(O)cc1)c1ccc(O)cc1 has a melting point of 140 to 141 °C.
Brc1ccc2c3c(cccc13)C(NCCCCCn1ccnc1)=N2 gave a melting point of 138 to 140 °C.
For Cc1cn(C)c2c1N(C(=O)CN1CCN(C)CC1)c1ccccc1NC2=O, the melting point was 205 to 207 °C.
CCOC(=O)c1cc(C(=O)c2ccc(C)cc2)n(C)c1C gave a melting point of 98 to 100 °C.
For CCCc1c(OCc2cc(C=CC(=O)O)ccc2OC)ccc(C(C)=O)c1O, the melting point was 245 to 246 °C.
For CC12CCC3c4cc(C=O)c(O)cc4CCC3C1CCC2O (stereo not drawn), the melting point was 219 to 221 °C.
O=C(CN1CCCC1=O)NCc1cccc(CNC(=O)CN2CCCC2=O)n1 showed a melting point of 149 °C.
With CC(=O)NCC1CN(c2ccc(S(=O)(=O)CCO)c(F)c2)C(=O)O1 (stereo not drawn) the melting point was 162 to 163 °C.
With CCCc1c(OCCCCCOc2ccc(C(=O)c3ccc(C(=O)O)cc3)cc2CCC(=O)O)ccc2c1OCCC2=O the melting point was 175 to 177 °C.
O=C(O)Cc1cc(Br)ccc1OCCCc1ccccc1 gave a melting point of 79.5 to 81 °C.
Compound CC(=O)NC[C@H]1CN(c2ccc(-n3cccn3)c(F)c2)C(=O)O1 has a melting point of 183 to 184 °C.
For C=CCOC(=O)NCc1ccc(C(=O)O)cc1, the melting point was 175 to 177 °C.
Work on CCCCCC1CCc2cc(C(=O)Oc3ccc(C#N)cc3)ccc2C1 (stereo not drawn) yielded a melting point of 72.7 to 73.3 °C.
For Cc1cccc(-c2sc(N)nc2-c2ccnc(-c3ccc(OCC(N)=O)cc3)c2)n1, the melting point was 191 °C.
With Cc1ccc(C2=CCC(C)(C)c3cc(C(=O)c4ccc5cc(C(=O)O)ccc5c4)ccc32)cc1 the melting point was 267 °C.
With CC(C)Cc1nn(-c2ccccc2)c(CC(C)C)c1CC(=O)O the melting point was 125 to 126 °C.
For CC1(C)OC(=S)Nc2ccc(-c3ccccc3F)cc21, the melting point was 171 to 173 °C.
Compound O=c1c2ccoc2c2cccnc2n1-c1ccccc1 has a melting point of 245 to 247 °C.
COC(=O)c1cccc2c1CC(C)(C)CC2N(C)S(C)(=O)=O (stereo not drawn) gave a melting point of 98 to 99 °C.
CCOC(=O)C(CC)=C(C)NC(=O)Nc1cc(C(=O)OC(C)C)c(Cl)cc1F gave a melting point of 112 to 115 °C.
CC(C)(C)C(=O)Oc1ccc2nc(S(N)(=O)=O)sc2c1 gave a melting point of 167 °C.
Cc1[nH]cnc1CSCCN=CNC#N showed a melting point of 168 to 170 °C.
Compound COc1ccc(-c2nc(OCC(F)(F)F)nn2-c2ccc(OC)nc2)cc1 has a melting point of 63 to 64 °C.
CC1(C)C=C(O)C(=O)C(C)(C)C1 showed a melting point of 85 to 86 °C.
In the case of Cc1ccccc1-c1c(C(=O)O)c(=O)n(C)c2cc3c(cc12)CCC3, the melting point is reported as 231 to 232 °C.
For CC(C)(O)c1ccc(-c2cnc3[nH]c(=O)n(CCC4CCOCC4)c3n2)cc1, the melting point was 263 to 266 °C.
In the case of N#Cc1cc(-c2cccc(Cl)c2)ccc1N, the melting point is reported as 118 to 119 °C.
For Fc1cccc(F)c1COc1cccnc1NC(=S)Nc1ccccc1, the melting point was 132 to 133 °C.
With O=C1Cc2cc(C(=O)c3ccccc3)ccc2N1 the melting point was 204 to 205 °C.
CCOC(=O)c1c(O)c2cccnc2n(Cc2ccc(Cl)cc2)c1=O showed a melting point of 142 to 144 °C.
CN1C(=O)SC(Cc2ccc(NC(=O)/C=C/c3cnn(C)c3-c3ccc(F)cc3)cc2)C1=O (stereo not drawn) showed a melting point of 228 to 229 °C.
CCCNc1nc(-c2ccc(OC)c(OC)c2)nc2sc(C#N)c(C)c12 gave a melting point of 179 to 181 °C.
CCOC(=O)N1CCC(c2ccc3oc(-c4ccc(S(C)(=O)=O)cc4F)nc3c2)CC1 gave a melting point of 145 to 148 °C.
O=C1c2ccccc2CN1CCSc1ccncc1 gave a melting point of 86 to 87 °C.
With CC(C)(CO)c1ccc(C(=O)Nc2cn3cc(-c4ccoc4)ccc3n2)cc1 the melting point was 246 to 248 °C.
In the case of CN(CC(=O)O)C(=S)c1ccc(Cl)cc1, the melting point is reported as 72 to 73 °C.
In the case of CCCCCCCCCCS(=O)(=O)N[C@H]1CCCNC(=O)C1, the melting point is reported as 98 to 99 °C.
For Cc1nc(-n2ccc(OCc3ccccc3)cc2=O)n(C)c1C(=O)NCc1ccccc1, the melting point was 232 to 233 °C.
With Cc1ccccc1CC(=O)Nc1ccc(C(=O)O)c(Cl)c1 the melting point was 214 to 218 °C.
In the case of COc1cc(OC)c2c(=O)[nH]c(-c3cc(C)c(O)c(C)c3)nc2n1, the melting point is reported as 297 to 299 °C.
CON=C(C)c1ccccc1NC(C(N)=O)c1c(Cl)cccc1Cl (stereo not drawn) gave a melting point of 206 °C.
Work on Fc1ccc(-c2ncn(C3CCNCC3)c2-c2ccnc(Oc3ccc(OCc4ccccc4)cc3)n2)cc1 yielded a melting point of 178 to 179 °C.
In the case of OC1(CNc2ccnc3cc(Cl)ccc23)CCCCC1, the melting point is reported as 205 to 207 °C.
In the case of CCCC(=O)OC(C)OC(=O)NC1(C(=O)O)CC1 (stereo not drawn), the melting point is reported as 90.4 to 93.4 °C.
NC(=O)c1c(C(F)(F)F)ccc(Cl)c1F showed a melting point of 123 to 125 °C.
With O=[N+]([O-])c1cc(Cl)c(Oc2ccccc2)cc1NCc1cccc(C(F)(F)F)c1 the melting point was 140 to 142 °C.
For Cc1nc2c(c3c1[nH]c1cccc(F)c13)C(=O)CC(C(C)C)C2 (stereo not drawn), the melting point was 213 to 215 °C.
Compound CCCCCC(=O)Nc1ccc2ccn(CCCCCCC(=O)NS(=O)(=O)c3ccccc3)c2c1 has a melting point of 97 to 99 °C.
CCOCc1nc2c(N)nc3cc(O)ccc3c2n1CC(C)C gave a melting point of over 265 °C.
With CCCCCCSc1c(O)cc(C)oc1=O the melting point was 69 to 70 °C.
Work on Cc1c(C(=O)Nc2cccc(C#N)c2N2CCC(O)CC2)cnn1C yielded a melting point of 261 to 262 °C.
COc1ccc(CN2C(=O)C3(COc4cc5c(cc43)OCCO5)c3ccccc32)cc1OC (stereo not drawn) gave a melting point of 209 to 211 °C.
With O=[N+]([O-])c1ccccc1/C=C/c1ccc(Cl)cc1[N+](=O)[O-] the melting point was 158 to 159 °C.
In the case of O=Cc1ccc(S(=O)(=O)CCCl)cc1, the melting point is reported as 70 to 72 °C.
Compound CN1C(C(=O)Nc2cncc(Cl)n2)=C(O)c2cc(Cl)ccc2S1(=O)=O has a melting point of 283 to 284 °C.
N#CC(C#N)=C1N(CCCN2CCCCC2)CCN1CCN1CCCC1 gave a melting point of 63 to 64 °C.
For c1cc2nc3c(n2nc1N1CCCCC1)CCCC3, the melting point was 184 to 185 °C.
Work on C[N+](C)([O-])c1ccc(/C=C/c2c(Cl)cccc2Cl)cc1 yielded a melting point of 80 to 82 °C.
Work on O=C(/C=C/c1ccn(S(=O)(=O)c2ccc(-n3cccn3)cc2)c1)NO yielded a melting point of 161 to 167 °C.
For O=CCCCN1C(=O)c2ccccc2C1=O, the melting point was 70 °C.
With Sc1nc(-c2ccccc2)c(-c2cccnc2)[nH]1 the melting point was 317 to 323 °C.
For CC(C)(C)NC(=O)[C@@H]1Cc2ccccc2CN1C(=O)OCc1ccccc1, the melting point was 105 to 106 °C.
Compound Clc1nc(Cl)c2[nH]nnc2n1 has a melting point of over 260 °C.
For O=C1COC(=O)c2ccccc2N1, the melting point was 200 to 201 °C.
For CNC(=O)C(=O)c1ccccc1COc1ccc(-c2ccccc2)cc1, the melting point was 144 to 145 °C.
Work on CCCCNC(=O)N(Cc1ccccn1)C1CCN(c2ncnc3cc(OC)c(OC)cc23)CC1 yielded a melting point of 162 to 164 °C.
For NS(=O)(=O)c1ccc(-c2cccc(-c3nc(-c4ccc(F)cc4)cc(C(F)(F)F)n3)c2)s1, the melting point was 228 °C.
COc1cc(C(C)C)ccc1C1(O)C(=O)c2c(NC(C)=O)ccc([N+](=O)[O-])c2C1=O (stereo not drawn) gave a melting point of 110 to 115 °C.
Work on COc1ccc(C2=NN(C3CCN(Cc4ccncc4)CC3)C(=O)[C@@H]3CC=CC[C@H]23)cc1OC yielded a melting point of 196 to 197 °C.
With COc1cc(OCC(=O)O)c(C)cc1SCc1ccc(-c2c(C)cc(C)cc2C)cc1 the melting point was 141 °C.
CCOC(=O)c1ccc(/C=C(\C)C=O)s1 gave a melting point of 98 °C.
Compound C[C@@H]1C[C@H](OC(=O)C(C)(C)Oc2ccc(C(=O)c3ccc(Cl)cc3)cc2)CC(C)(C)C1 (relative stereo) has a melting point of 65 °C.
Compound OC1(c2ccc(C(F)(F)F)cc2)CCN(Cc2ccccc2)CC1 has a melting point of 115 to 117 °C.
For O=[N+]([O-])c1c(N2CCc3ccccc3CC2)nc2c(c1O)CCCCC2, the melting point was over 200 °C.
For c1ccc2c(c1)nc1snc(-c3cnccn3)n12, the melting point was 255 to 256 °C.
CCOC(=O)C(C)(C#N)c1ccc2c(c1)Cc1cccnc1O2 (stereo not drawn) gave a melting point of 119 to 120 °C.
CC(C)n1nc(-c2c(-c3ccccc3)nn3ccc(OCCN4CCCC4)cc23)ccc1=O showed a melting point of 149 to 150 °C.
Work on O=C(O)c1ccc(COCc2csc3nc(C(=O)NCc4ccccc4)[nH]c(=O)c23)cc1 yielded a melting point of 268 to 269 °C.
COc1c(C)c(C)c(O)c(C)c1CN(C)CCOc1cc(C)ccc1C(C)C gave a melting point of 75 to 77 °C.
In the case of Cc1cc(C(=O)Nc2ccc(C(=O)O)cc2)on1, the melting point is reported as over 300 °C.
Work on CCCCCC[C@H](C)Oc1ccc(-c2ccc(OC(=O)c3ccccc3)cc2)cc1 yielded a melting point of 84 °C.
O=c1[nH]c(=S)c2[nH]cnc2n1Cc1ccccc1 showed a melting point of 262 to 263 °C.
Work on Cc1cc(-c2n[nH]c(=O)c(O)c2O)ccc1O yielded a melting point of 265 to 267 °C.
